Assay results from patent publication US10670605B2, “Cysteine reactive probes and uses thereof” (The Scripps Research Institute, priority 2015, dated 2020).

Columns and labels:
Test in all cases: Competitive isoTOP-ABPP in situ (fragment-treated cells)
Format in all cases: cell-based
[1] = target: cysteines in MDA-MB-231 and Ramos cells (Homo sapiens, UniProt P68366)
[2] = target: T1, cysteines in MDA-MB-231 and Ramos cells (Homo sapiens, UniProt P55265); conditions: 200 μM, insitu
T1 sequence (P55265 1-1226): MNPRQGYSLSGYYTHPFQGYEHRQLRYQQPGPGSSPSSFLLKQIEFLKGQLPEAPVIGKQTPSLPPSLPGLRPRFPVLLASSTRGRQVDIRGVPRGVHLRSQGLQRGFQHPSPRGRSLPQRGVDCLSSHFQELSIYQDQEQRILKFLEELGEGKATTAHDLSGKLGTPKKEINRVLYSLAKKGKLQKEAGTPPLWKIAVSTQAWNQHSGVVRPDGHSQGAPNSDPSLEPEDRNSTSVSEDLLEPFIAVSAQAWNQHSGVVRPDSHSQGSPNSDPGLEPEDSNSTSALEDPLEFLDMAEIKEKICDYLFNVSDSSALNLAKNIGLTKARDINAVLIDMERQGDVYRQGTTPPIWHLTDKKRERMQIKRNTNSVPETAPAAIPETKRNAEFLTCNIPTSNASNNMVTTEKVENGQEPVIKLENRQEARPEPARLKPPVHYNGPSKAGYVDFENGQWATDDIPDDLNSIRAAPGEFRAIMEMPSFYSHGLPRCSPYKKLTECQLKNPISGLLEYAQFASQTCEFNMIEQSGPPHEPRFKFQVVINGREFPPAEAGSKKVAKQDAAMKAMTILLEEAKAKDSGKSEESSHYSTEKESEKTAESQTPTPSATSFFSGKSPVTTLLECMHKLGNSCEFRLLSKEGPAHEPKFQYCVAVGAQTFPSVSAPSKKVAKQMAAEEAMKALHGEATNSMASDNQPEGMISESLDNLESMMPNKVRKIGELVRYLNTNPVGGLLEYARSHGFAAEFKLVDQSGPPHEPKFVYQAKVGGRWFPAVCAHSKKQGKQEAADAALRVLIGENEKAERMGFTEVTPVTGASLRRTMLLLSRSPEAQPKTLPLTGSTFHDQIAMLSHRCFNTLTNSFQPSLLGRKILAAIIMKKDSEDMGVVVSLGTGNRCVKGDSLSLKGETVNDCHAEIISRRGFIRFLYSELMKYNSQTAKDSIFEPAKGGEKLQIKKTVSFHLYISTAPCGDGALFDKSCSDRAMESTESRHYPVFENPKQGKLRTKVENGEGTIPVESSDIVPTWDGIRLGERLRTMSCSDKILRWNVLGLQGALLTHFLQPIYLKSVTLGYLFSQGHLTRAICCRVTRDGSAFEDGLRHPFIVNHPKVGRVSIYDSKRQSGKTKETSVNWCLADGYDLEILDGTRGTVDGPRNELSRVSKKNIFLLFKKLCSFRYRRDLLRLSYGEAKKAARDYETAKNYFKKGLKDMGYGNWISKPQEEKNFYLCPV

[3] = target: T2, cysteines in MDA-MB-231 and Ramos cells (Homo sapiens, UniProt Q86YH6)
T2 sequence (Q86YH6 1-399): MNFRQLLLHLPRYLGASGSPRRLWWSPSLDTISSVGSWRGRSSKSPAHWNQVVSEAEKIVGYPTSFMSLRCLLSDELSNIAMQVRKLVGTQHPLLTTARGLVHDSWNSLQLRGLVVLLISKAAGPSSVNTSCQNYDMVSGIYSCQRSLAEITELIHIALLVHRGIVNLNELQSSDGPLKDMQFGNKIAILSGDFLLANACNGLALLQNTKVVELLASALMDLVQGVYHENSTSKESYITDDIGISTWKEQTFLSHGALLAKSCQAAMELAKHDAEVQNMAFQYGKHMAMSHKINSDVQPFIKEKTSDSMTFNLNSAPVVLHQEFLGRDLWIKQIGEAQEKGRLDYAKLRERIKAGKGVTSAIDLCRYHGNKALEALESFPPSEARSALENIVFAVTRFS

[4] = target: T3, cysteines in MDA-MB-231 and Ramos cells (Homo sapiens, UniProt P35754)
T3 sequence (P35754 1-106): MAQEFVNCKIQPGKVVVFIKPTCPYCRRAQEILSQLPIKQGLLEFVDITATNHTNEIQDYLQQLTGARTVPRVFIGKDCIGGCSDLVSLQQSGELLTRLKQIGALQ

[5] = target: cysteines in MDA-MB-231 and Ramos cells (Homo sapiens, UniProt P51812)
[6] = target: T4, cysteines in MDA-MB-231 and Ramos cells (Homo sapiens, UniProt Q07065)
T4 sequence (Q07065 1-602): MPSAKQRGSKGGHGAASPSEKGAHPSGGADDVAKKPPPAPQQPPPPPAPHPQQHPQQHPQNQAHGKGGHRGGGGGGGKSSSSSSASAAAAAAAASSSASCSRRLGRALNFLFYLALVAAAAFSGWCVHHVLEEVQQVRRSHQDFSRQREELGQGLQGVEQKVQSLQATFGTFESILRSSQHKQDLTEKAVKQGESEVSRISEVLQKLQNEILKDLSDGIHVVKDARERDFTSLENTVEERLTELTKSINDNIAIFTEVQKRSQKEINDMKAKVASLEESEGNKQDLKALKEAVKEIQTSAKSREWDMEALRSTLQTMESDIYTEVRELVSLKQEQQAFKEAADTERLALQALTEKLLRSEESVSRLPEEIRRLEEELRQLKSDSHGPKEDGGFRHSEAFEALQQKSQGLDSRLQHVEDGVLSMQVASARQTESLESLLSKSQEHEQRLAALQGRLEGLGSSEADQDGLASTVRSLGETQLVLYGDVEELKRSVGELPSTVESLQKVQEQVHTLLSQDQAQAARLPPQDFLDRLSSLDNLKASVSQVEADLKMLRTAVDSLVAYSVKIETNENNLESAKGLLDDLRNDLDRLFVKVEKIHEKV

[7] = target: cysteines in MDA-MB-231 and Ramos cells (Homo sapiens, UniProt Q8WWI1)
Chain of cysteines in MDA-MB-231 and Ramos cells (Homo sapiens, UniProt Q8WWI1) (Q8WWI1 whole entry): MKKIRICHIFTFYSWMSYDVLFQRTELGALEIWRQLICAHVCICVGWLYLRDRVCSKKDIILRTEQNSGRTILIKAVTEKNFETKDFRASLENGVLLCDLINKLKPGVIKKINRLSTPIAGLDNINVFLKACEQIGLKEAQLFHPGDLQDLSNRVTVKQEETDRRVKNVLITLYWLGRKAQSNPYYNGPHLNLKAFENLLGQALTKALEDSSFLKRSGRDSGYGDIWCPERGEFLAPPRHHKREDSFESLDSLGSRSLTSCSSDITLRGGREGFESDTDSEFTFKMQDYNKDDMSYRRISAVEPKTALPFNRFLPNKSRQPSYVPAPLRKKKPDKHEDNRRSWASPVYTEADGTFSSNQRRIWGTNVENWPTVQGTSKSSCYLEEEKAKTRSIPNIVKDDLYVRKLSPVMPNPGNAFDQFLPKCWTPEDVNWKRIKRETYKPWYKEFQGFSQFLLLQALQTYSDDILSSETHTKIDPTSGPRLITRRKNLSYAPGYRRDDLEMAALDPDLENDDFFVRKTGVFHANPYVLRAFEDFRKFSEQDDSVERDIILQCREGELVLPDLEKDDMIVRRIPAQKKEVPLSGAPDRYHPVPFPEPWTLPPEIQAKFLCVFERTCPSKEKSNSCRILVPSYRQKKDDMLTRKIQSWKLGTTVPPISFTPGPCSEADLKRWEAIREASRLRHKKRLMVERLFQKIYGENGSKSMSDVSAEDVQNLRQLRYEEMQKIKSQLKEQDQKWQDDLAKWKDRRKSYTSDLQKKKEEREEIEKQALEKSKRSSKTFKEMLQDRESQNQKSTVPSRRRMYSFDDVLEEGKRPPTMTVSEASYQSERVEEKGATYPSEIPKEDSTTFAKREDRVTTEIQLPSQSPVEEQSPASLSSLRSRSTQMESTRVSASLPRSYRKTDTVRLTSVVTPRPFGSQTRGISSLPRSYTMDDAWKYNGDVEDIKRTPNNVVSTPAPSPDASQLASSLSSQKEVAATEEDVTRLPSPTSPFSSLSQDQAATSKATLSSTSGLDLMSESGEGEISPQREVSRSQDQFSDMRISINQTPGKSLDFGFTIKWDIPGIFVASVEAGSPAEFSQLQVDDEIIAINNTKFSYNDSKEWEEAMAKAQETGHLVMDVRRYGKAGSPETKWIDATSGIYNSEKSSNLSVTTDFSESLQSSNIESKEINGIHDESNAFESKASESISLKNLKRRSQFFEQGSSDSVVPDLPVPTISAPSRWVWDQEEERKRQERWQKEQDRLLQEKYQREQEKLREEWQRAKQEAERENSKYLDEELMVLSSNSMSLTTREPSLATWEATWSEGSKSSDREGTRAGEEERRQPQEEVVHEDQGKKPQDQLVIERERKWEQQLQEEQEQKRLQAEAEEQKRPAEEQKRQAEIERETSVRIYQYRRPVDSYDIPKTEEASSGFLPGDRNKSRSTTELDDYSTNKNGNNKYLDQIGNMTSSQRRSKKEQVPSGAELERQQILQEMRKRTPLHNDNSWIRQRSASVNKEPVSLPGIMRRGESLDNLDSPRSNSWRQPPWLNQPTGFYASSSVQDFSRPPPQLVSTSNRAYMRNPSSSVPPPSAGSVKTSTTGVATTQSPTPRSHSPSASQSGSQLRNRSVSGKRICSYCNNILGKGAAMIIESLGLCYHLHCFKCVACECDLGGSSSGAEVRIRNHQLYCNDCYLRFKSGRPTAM

Chain of cysteines in MDA-MB-231 and Ramos cells (Homo sapiens, UniProt P51812) (P51812 whole entry): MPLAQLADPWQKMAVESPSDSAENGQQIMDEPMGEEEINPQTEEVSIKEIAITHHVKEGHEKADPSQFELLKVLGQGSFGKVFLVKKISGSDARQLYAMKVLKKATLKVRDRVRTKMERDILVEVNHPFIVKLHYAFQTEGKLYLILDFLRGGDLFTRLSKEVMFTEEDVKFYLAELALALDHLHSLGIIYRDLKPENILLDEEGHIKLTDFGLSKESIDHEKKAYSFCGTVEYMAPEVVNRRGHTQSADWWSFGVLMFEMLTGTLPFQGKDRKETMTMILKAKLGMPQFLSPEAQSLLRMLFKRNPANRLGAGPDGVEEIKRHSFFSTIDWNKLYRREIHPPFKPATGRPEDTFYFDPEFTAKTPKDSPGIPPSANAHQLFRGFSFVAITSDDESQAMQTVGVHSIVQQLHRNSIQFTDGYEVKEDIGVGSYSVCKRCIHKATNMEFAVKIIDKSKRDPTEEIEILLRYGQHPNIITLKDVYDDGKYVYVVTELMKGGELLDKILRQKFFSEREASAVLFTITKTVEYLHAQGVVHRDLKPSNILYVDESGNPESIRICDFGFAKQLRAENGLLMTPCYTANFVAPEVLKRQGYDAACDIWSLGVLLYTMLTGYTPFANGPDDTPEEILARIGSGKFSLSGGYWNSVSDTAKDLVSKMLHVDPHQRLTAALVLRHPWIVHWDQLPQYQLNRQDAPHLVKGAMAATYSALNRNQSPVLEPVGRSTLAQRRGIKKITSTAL
Chain of cysteines in MDA-MB-231 and Ramos cells (Homo sapiens, UniProt P68366) (P68366 whole entry): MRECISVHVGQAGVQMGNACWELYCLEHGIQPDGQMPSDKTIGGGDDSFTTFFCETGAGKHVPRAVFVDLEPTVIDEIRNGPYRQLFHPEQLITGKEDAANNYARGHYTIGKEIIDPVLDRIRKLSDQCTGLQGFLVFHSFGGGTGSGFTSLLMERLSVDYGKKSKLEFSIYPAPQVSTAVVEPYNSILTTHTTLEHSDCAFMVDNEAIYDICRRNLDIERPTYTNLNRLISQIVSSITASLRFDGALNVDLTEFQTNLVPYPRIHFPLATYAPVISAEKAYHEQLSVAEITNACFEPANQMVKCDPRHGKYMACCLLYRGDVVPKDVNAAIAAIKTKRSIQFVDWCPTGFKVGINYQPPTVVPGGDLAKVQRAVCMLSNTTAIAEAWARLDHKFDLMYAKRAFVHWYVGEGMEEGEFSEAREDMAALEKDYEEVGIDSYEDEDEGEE

SMILES: COc1ccc2c(c1)CCCN2C(=O)CCl [compound 2]
- isoTOP-ABPP reactivity P68366_C54 TUBA4A ([1]; 200 μM, insitu, 231): 9.7
- isoTOP-ABPP reactivity P55265_C1224 ADAR [2]; 231: 9.1
- isoTOP-ABPP reactivity Q86YH6_C71 PDSS2 ([3]; 200 μM, insitu, 231): 20.0

SMILES: COc1ccc(C2CC(c3cccs3)=NN2C(=O)CCl)cc1 (stereo not drawn) [compound 4]
- isoTOP-ABPP reactivity P68366_C54 TUBA4A ([1]; 100 μM in situ 231): 0.8
- isoTOP-ABPP reactivity P35754_C23 GLRX ([4]; 100 μM in situ 231): 20.0
- isoTOP-ABPP reactivity Q86YH6_C71 PDSS2 ([3]; 100 μM in situ 231): 20.0

SMILES: COc1cc2c(cc1OC)CN(C(=O)CCl)CC2 [compound 8]
- isoTOP-ABPP reactivity P68366_C54 TUBA4A ([1]; 200 μM, insitu, 231): 0.9

SMILES: O=C(CCl)N1CCC(Cc2ccccc2)CC1 [compound 9]
- isoTOP-ABPP reactivity P51812_C436 RPS6KA3 ([5]; 200 μM, insitu, 231): 2.1
- isoTOP-ABPP reactivity Q07065_C100 CKAP4 ([6]; 200 μM, insitu, 231): 15.4

SMILES: O=C(CCl)N1CCN(S(=O)(=O)c2ccccc2F)CC1 [compound 10]
- isoTOP-ABPP ratio P68366_C54 ([1]; 200 μM, insitu, 231): 7.9
- isoTOP-ABPP ratio P68366_C54 ([1]; 200 μM, insitu, ramos): 2.8
- isoTOP-ABPP ratio Q8WWI1_C228 ([7]; 200 μM, insitu, 231): 17.2
- isoTOP-ABPP ratio, cysteine P55265_C1224 [2]; 231: 10.7
- isoTOP-ABPP ratio P35754_C23 ([4]; 200 μM, insitu, ramos): 13.0
- isoTOP-ABPP ratio Q86YH6_C71 ([3]; 200 μM, insitu, 231): 20.0

SMILES: Cn1cc(S(=O)(=O)N2CCOCC2)cc1C(=O)NC(=O)CCl [compound 11]
- isoTOP-ABPP ratio, cysteine P51812_C436 ([5]; 100 μM in situ 231): 0.5
- isoTOP-ABPP ratio P68366_C54 ([1]; 100 μM in situ 231): 0.3
- isoTOP-ABPP ratio Q8WWI1_C228 ([7]; 100 μM in situ 231): 1.3
- isoTOP-ABPP ratio, cysteine Q07065_C100 ([6]; 100 μM in situ 231): 1.0
- isoTOP-ABPP ratio P35754_C23 ([4]; 100 μM in situ 231): 20.0
- isoTOP-ABPP ratio Q86YH6_C71 ([3]; 100 μM in situ 231): 1.0

SMILES: O=C(CCl)NC(=O)NC12CC3CC(CC(C3)C1)C2 [compound 12]
- isoTOP-ABPP ratio, cysteine P51812_C436 ([5]; 200 μM, insitu, 231): 1.4
- isoTOP-ABPP ratio Q8WWI1_C228 ([7]; 200 μM, insitu, 231): 20.0
- isoTOP-ABPP ratio, cysteine Q07065_C100 ([6]; 200 μM, insitu, 231): 20.0
- isoTOP-ABPP ratio P35754_C23 ([4]; 200 μM, insitu, 231): 20.0
- isoTOP-ABPP ratio Q86YH6_C71 ([3]; 200 μM, insitu, 231): 20.0

SMILES: O=C(CCl)NCCc1c[nH]c2ccccc12 [compound 13]
- isoTOP-ABPP ratio, cysteine P51812_C436 ([5]; 200 μM, insitu, 231): 1.0
- isoTOP-ABPP ratio P68366_C54 ([1]; 200 μM, insitu, ramos): 1.3
- isoTOP-ABPP ratio Q8WWI1_C228 ([7]; 200 μM, insitu, 231): 2.0
- isoTOP-ABPP ratio Q8WWI1_C228 ([7]; 200 μM, insitu, ramos): 1.0
- isoTOP-ABPP ratio, cysteine P55265_C1224 [2]; 231: 1.9
- isoTOP-ABPP ratio, cysteine Q07065_C100 ([6]; 200 μM, insitu, 231): 1.6
- isoTOP-ABPP ratio Q86YH6_C71 ([3]; 200 μM, insitu, 231): 1.2
- isoTOP-ABPP ratio Q86YH6_C71 ([3]; 200 μM, insitu, ramos): 1.8

SMILES: O=C(CCl)NC12CC3CC(CC(C3)C1)C2 [compound 21]
- isoTOP-ABPP ratio P68366_C54 ([1]; 200 μM, insitu, 231): 0.8
- isoTOP-ABPP ratio Q8WWI1_C228 ([7]; 200 μM, insitu, 231): 1.1
- isoTOP-ABPP ratio, cysteine P55265_C1224 [2]; 231: 2.2
- isoTOP-ABPP ratio, cysteine Q07065_C100 ([6]; 200 μM, insitu, 231): 2.2
- isoTOP-ABPP ratio Q86YH6_C71 ([3]; 200 μM, insitu, 231): 2.1

SMILES: CC(C)CCOCCNC(=O)CCl [compound 27]
- isoTOP-ABPP ratio P68366_C54 ([1]; 200 μM, insitu, 231): 0.3
- isoTOP-ABPP ratio Q8WWI1_C228 ([7]; 200 μM, insitu, 231): 0.8
- isoTOP-ABPP ratio P55265_C1224 [2]; 231: 1.4
- isoTOP-ABPP ratio P35754_C23 ([4]; 200 μM, insitu, 231): 0.7
- isoTOP-ABPP ratio Q86YH6_C71 ([3]; 200 μM, insitu, 231): 1.3

SMILES: COc1ccccc1OCCNC(=O)CCl [compound 28]
- isoTOP-ABPP ratio P35754_C23 ([4]; 200 μM, insitu, 231): 1.4

SMILES: O=C(CCl)N1CCN(CC(=O)N2CCOCC2)CC1 [compound 29]
- isoTOP-ABPP ratio P51812_C436 ([5]; 200 μM, insitu, ramos): 1.3
- isoTOP-ABPP ratio P68366_C54 ([1]; 200 μM, insitu, ramos): 1.0
- isoTOP-ABPP ratio Q8WWI1_C228 ([7]; 200 μM, insitu, ramos): 1.0
- isoTOP-ABPP ratio P55265_C1224 ([2]; ramos): 1.8
- isoTOP-ABPP ratio Q86YH6_C71 ([3]; 200 μM, insitu, ramos): 1.1

SMILES: C=CC(=O)N(Cc1cccnc1)c1cc(C(F)(F)F)cc(C(F)(F)F)c1 [compound 31]
- isoTOP-ABPP ratio P68366_C54 ([1]; 200 μM, insitu, ramos): 1.1
- isoTOP-ABPP ratio P35754_C23 ([4]; 200 μM, insitu, 231): 0.6
- isoTOP-ABPP ratio P35754_C23 ([4]; 200 μM, insitu, ramos): 1.1

SMILES: C=CC(=O)Nc1cc(F)c(N2CCN(C(=O)OC(C)(C)C)CC2)c(F)c1 [compound 38]
- isoTOP-ABPP ratio P68366_C54 ([1]; 200 μM, insitu, 231): 2.0
- isoTOP-ABPP ratio P35754_C23 ([4]; 200 μM, insitu, 231): 0.9

SMILES: Cc1ccc(C=C(C#N)C(=O)NCCN2CCOCC2)cc1 [compound 41]
- isoTOP-ABPP ratio P51812_C436 ([5]; 200 μM, insitu, 231): 4.5
- isoTOP-ABPP ratio Q8WWI1_C228 ([7]; 200 μM, insitu, 231): 0.8
- isoTOP-ABPP ratio Q07065_C100 ([6]; 200 μM, insitu, 231): 1.0
- isoTOP-ABPP ratio P35754_C23 ([4]; 200 μM, insitu, 231): 0.5
- isoTOP-ABPP ratio Q86YH6_C71 ([3]; 200 μM, insitu, 231): 0.9

SMILES: CC1CCc2ccccc2N1C(=O)CCl (stereo not drawn) [compound 45]
- isoTOP-ABPP ratio Q8WWI1_C228 ([7]; 200 μM, insitu, 231): 20.0
- isoTOP-ABPP ratio P55265_C1224 [2]; 231: 20.0
- isoTOP-ABPP ratio Q07065_C100 ([6]; 200 μM, insitu, 231): 20.0
- isoTOP-ABPP ratio P35754_C23 ([4]; 200 μM, insitu, 231): 16.3
- isoTOP-ABPP ratio Q86YH6_C71 ([3]; 200 μM, insitu, 231): 20.0

SMILES: O=C(CCl)Nc1cccc2ncccc12 [compound 51]
- isoTOP-ABPP ratio P55265_C1224 [2]; 231: 1.3
